In patent US10551389B2, “Target binding molecules identified by kinetic target-guided synthesis” (UNIVERSITY OF SOUTH FLORIDA, priority 2013, dated 2020):

Columns and labels:
[1] = target: Mcl-1 (Homo sapiens, UniProt Q07820); assay: Inhibition of Mcl-1 (disruption of Mcl-1/Bim interaction); assay type: binding; settings: for % Inhibition (25 μM) Mcl-1 / inhibition at 25 µM: compound at 25 μM; for % Inhibition (50 μM) Mcl-1 / inhibition at 50 µM: compound at 50 μM
Description: (§1) In a subsequent study, a structurally diverse library of forty five thio acids and thirty eight sulfonyl azides (identified above) was screened in parallel against Mcl-1 and Bcl-XL using the above mentioned approach. Several potential hit combinations were identified (Table 3). All of these kinetic TGS hit compounds were synthesized (identified above and in Table 3). All the reactions were performed at 20-30 mg scale. The 9-fluorenylmethyl thioester was placed in a 2.0 mL vial and 3.5% DBU/dry DMF solution was added (per 1 μmol of thioester, 4.7 μL, of 3.5% DBU/dry DMF solution was added) and the reaction was stirred for one minute. Then the sulfonylazide (1 eq to thioester) was added to the reaction mixture and immediately bubbling was observed. After the reaction was completed (approximately one minute, monitored by LC-MS) water (200 μL) was added and the pH was adjusted to 7.0 using 1M HCl solution. The reaction mixture was extracted with DCM until there is no product in the aqueous layer (checked by TLC or LC-MS). The product was purified by flash chromatography. Testing of these acylsulfonamides has shown that the hit compounds disrupt the Bcl-XL/Bim or Mcl-1/Bim interaction (Table 3).

[2] = target: Bcl-XL (Homo sapiens, UniProt Q07817); assay: Inhibition of Bcl-XL (disruption of Bcl-XL/Bim interaction); assay type: binding; settings: for % Inhibition (25 μM) Bcl-XL / inhibition at 25 µM: compound at 25 μM; for % Inhibition (50 μM) Bcl-XL / inhibition at 50 µM: compound at 50 μM
Chain of Bcl-XL (Q07817 whole entry, species assumed): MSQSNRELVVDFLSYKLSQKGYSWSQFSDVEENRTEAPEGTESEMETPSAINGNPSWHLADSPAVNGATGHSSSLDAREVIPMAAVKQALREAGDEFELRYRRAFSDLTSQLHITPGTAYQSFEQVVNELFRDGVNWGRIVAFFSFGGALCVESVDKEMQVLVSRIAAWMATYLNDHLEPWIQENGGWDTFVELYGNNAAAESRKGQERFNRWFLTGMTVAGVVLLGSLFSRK
Description: as §1

Chain of Mcl-1 (Q07820 whole entry, species assumed): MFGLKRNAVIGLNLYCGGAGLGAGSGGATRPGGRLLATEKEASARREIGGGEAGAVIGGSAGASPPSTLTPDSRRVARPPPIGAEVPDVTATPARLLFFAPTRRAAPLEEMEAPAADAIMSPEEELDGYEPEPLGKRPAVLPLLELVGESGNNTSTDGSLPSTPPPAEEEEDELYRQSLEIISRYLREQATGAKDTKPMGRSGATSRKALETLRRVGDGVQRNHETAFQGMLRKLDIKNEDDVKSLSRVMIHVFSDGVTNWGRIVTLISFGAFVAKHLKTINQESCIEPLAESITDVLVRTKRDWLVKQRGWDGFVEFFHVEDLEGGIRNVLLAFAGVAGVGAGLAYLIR

| Structure (SMILES) | % Inhibition (25 μM) Mcl-1 [1] | % Inhibition (50 μM) Mcl-1 [1] | % Inhibition (25 μM) Bcl-XL [2] | % Inhibition (50 μM) Bcl-XL [2] | IC50 [1] | IC50 [2] | inhibition at 50 µM [1] | inhibition at 50 µM [2] | inhibition at 25 µM [1] | inhibition at 25 µM [2] |
| --- | --- | --- | --- | --- | --- | --- | --- | --- | --- | --- |
| NS(=O)(=O)c1ccc(CN(CCSc2ccccc2)Cc2ccc(S(=O)(=O)NC(=O)CC3Sc4ccccc4NC3=O)cc2)cc1 (centres unmarked) [SZ10TA34] | 19.4% | 64.1% | 17.4% | 27.0% | – | – | – | – | – | – |
| COc1cccc(CN(CCSc2ccccc2)Cc2ccc(S(=O)(=O)NC(=O)c3ccc4c(c3)c(C(=O)C3CCCCC3)cn4C)cc2)c1 [SZ17TA40] | 25.8% | 58.5% | 7.5% | <2.0% | – | – | – | – | – | – |
| [N-]=[N+]=NS(=O)(=O)c1ccc(CN(CCSc2ccccc2)Cc2ccc(S(=O)(=O)NC(=O)c3ccc(-c4ccc(F)cc4)cc3)cc2)cc1 [SZ9TA14] | 30% | 42.5% | 8.4% | 7.0% | – | – | – | – | – | – |
| O=C(NS(=O)(=O)c1ccc(CN(CCSc2ccccc2)Cc2c(F)cccc2Cl)cc1)c1ccc(OC(F)(F)F)cc1 [SZ15TA8] | <2.0% | 96.5% | 3.4% | 12.4% | 7.6 µM | 47 µM | – | – | – | – |
| COc1cccc(CN(CCSc2ccccc2)Cc2ccc(S(=O)(=O)NC(=O)c3sc(-c4ccccc4)nc3C)cc2)c1 [SZ17TA3] | – | – | – | – | 8.6 µM | – | 100% | 39.6% | – | – |
| [N-]=[N+]=NS(=O)(=O)c1ccc(CN(CCSc2ccccc2)Cc2ccc(S(=O)(=O)NC(=O)c3ccc(-c4ccccn4)cc3)cc2)cc1 [SZ9TA25] | – | – | – | – | – | – | – | < 2% | 43.1% | 18.6% |
| O=C(NS(=O)(=O)c1ccc(CN(CCSc2ccccc2)Cc2ccc3c(c2)OCO3)cc1)c1ccc(C(c2c[nH]c3ccccc23)c2c[nH]c3ccccc23)cc1 [SZ31TA31] | <2.0% | <2.0% | <2.0% | <2.0% | – | – | – | – | – | – |
| Cn1cc(C(=O)c2cccs2)c2cc(C(=O)NS(=O)(=O)CCN(CCSc3ccccc3)Cc3ccc4c(c3)OCO4)ccc21 [SZ28TA45] | 46.8% | 54.0% | 25.7% | 34.6% | – | – | – | – | – | – |
| COc1cccc(CN(CCSc2ccccc2)Cc2ccc(S(=O)(=O)NC(=O)c3ccc4c(ccn4Cc4ccc(C(F)(F)F)cc4C(F)(F)F)c3)cc2)c1 [SZ17TA30] | 18.0% | 15.8% | <2.0% | <2.0% | – | – | – | – | – | – |
| COc1cccc(CN(CCSc2ccccc2)Cc2ccc(S(=O)(=O)NC(=O)c3cccc4ccccc34)cc2)c1 [SZ17TA7] | – | – | – | – | 20.1 µM | – | – | 66.5% | – | – |
| Cn1cc(C(=O)C2CCCCC2)c2cc(C(=O)NS(=O)(=O)c3ccc(-c4ccc(C(C)(C)C)cc4)cc3)ccc21 [SZ11TA40] | – | – | – | – | 21.9 µM | – | > 99% | 58.7% | 74% | 30.7% |
| O=C(NS(=O)(=O)c1ccc(CN(CCSc2ccccc2)Cc2ccc3c(c2)OCO3)cc1)c1ccc(CCc2ccccn2)cc1 [SZ31TA17] | – | – | – | – | 16.8 µM | 31.3 µM | 88.6% | 77.7% | 84.3% | 40.2% |
| O=C(Cn1c2ccccc2c2ccccc21)NS(=O)(=O)c1ccc(CN(CCSc2ccccc2)Cc2c(F)cccc2Cl)cc1 [SZ15TA15] | 42.2% | 53.6% | 10.1% | 8.8% | – | – | – | – | – | – |
| CN(C)C(=O)c1cccc(-c2ccc(S(=O)(=O)NC(=O)c3ccc(CN4C(=O)C(c5ccc(F)cc5F)=C(c5ccc(F)cc5F)C4=O)cc3)cc2)c1 [SZ34TA42] | – | – | – | – | 29.3 µM | – | > 99% | 58% | 49% | 19.1% |
| COc1cc(OC)cc(C(=O)NS(=O)(=O)c2ccc(CN(CCSc3ccccc3)Cc3ccc(S(=O)(=O)N=[N+]=[N-])cc3)cc2)c1 [SZ9TA5] | – | – | – | – | 8.1 µM | 36 µM | > 99% | 60.3% | 50% | 8.6% |
| [N-]=[N+]=NS(=O)(=O)c1ccc(CN(CCSc2ccccc2)Cc2ccc(S(=O)(=O)NC(=O)c3ccc(CCc4ccccn4)cc3)cc2)cc1 [SZ9TA17] | – | – | – | – | 20.4 µM | – | 103% | 63.5% | 69.3% | 50% |
| Cn1cc(C(=O)C2CCCCC2)c2cc(C(=O)NS(=O)(=O)c3ccc(COc4ccc5c(=O)cc(-c6ccccc6)oc5c4)cc3)ccc21 [SZ14TA40] | 68.5% | 93.1% | 27.8% | 47.9% | – | – | – | – | – | – |
| COc1cc(OC)cc(C(=O)NS(=O)(=O)c2ccc(CN(CCSc3ccccc3)Cc3c(F)cccc3Cl)cc2)c1 [SZ15TA5] | – | >99.0% | – | 38.4% | 13.4 µM | 53 µM | – | – | – | – |
| Cc1noc(C)c1-c1ccc(S(=O)(=O)NC(=O)c2ccc(CN3C(=O)C(c4ccc(F)cc4F)=C(c4ccc(F)cc4F)C3=O)cc2)cc1 [SZ32TA42] | – | – | – | – | 19.1 µM | – | – | 59.4% | 72.2% | 26% |
| NS(=O)(=O)c1ccc(CN(CCSc2ccccc2)Cc2ccc(S(=O)(=O)NC(=O)c3cccc(NCCc4ccccc4)c3)cc2)cc1 [SZ10TA44] | 27.6% | 63.4% | 9.9% | 20.6% | – | – | – | – | – | – |
| COc1cc2c(cc1OC)C(c1ccccc1)N(Cc1ccc(S(=O)(=O)NC(=O)c3ccc(-c4ccc(F)cc4)cc3)cc1)CC2 (centres unmarked) [SZ8TA14] | – | – | – | – | – | – | 58.3% | 13.9% | 35.2% | 14.4% |
| Cc1nc(-c2ccccc2)sc1C(=O)NS(=O)(=O)c1ccc(CN(CCSc2ccccc2)Cc2c(F)cccc2Cl)cc1 [SZ15TA3] | – | – | – | – | 5.8 µM | – | – | 43% | – | – |
| COc1ccc(Cc2ccc(C(=O)NS(=O)(=O)c3ccc(CN(CCSc4ccccc4)Cc4ccc5c(c4)OCO5)cc3)cc2)c(OC)c1OC [SZ31TA24] | – | – | – | – | 20 µM | – | – | 15.5% | 59.9% | 8.2% |
| Cc1nc(-c2ccccc2)sc1C(=O)NS(=O)(=O)c1ccc(CN(CCSc2ccccc2)Cc2ccc3c(c2)OCO3)cc1 [SZ31TA3] | – | – | – | – | 9.4 µM | – | 100% | 51.3% | 69.9% | 29.6% |
| O=C(NS(=O)(=O)c1ccc(CN(CCSc2ccccc2)Cc2ccc3c(c2)OCO3)cc1)c1ccc(-c2ccc(F)cc2)cc1 [SZ31TA14] | 56.2% | 59.5% | 17.3% | 13.3% | – | – | – | – | – | – |
| O=C(NS(=O)(=O)CCN(CCSc1ccccc1)Cc1ccc2c(c1)OCO2)c1ccc(C(c2c[nH]c3ccccc23)c2c[nH]c3ccccc23)cc1 [SZ28TA31] | 22.6% | 25.8% | 8.1% | <2.0% | – | – | – | – | – | – |
| O=C(NS(=O)(=O)c1ccc(CN(CCSc2ccccc2)Cc2ccc3c(c2)OCO3)cc1)c1ccc2c(ccn2Cc2ccc(C(F)(F)F)cc2C(F)(F)F)c1 [SZ31TA30] | 32.4% | 30.6% | <2.0% | <2.0% | – | – | – | – | – | – |
| O=C(NS(=O)(=O)c1ccc(-c2ccc(C(F)(F)F)cc2)cc1)c1cccc(NCCc2ccccc2)c1 [SZ16TA44] | – | – | – | – | 31.5 µM | – | – | 55.5% | 49.9% | 26.8% |
